For assay [1], the target named is T1, Neuronal acetylcholine receptor; alpha3/beta4 (Rattus norvegicus, UniProt P04757+P12392). The assay is described as follows: Displacement of [3H]epibatidine from rat neuronal acetylcholine receptor subunit alpha3beta4 expressed in HEK293 cell membranes incubated for 4 hrs by scintillation counting method. To be noted: for pKi: hek293.
The target of assay [2] is Neuronal acetylcholine receptor; alpha4/beta4 (Rattus norvegicus, UniProt P09483+P12392). The assay is described as follows: Displacement of [3H]epibatidine from rat neuronal acetylcholine receptor subunit alpha4beta4 expressed in HEK293 cell membranes incubated for 4 hrs by scintillation counting method. (Displacement assays read how much labelled ligand stays bound in the presence of the test substance.)

For assay [3], the target named is Neuronal acetylcholine receptor; alpha4/beta2 (Rattus norvegicus, UniProt P09483+P12390). The assay is described as follows: Displacement of [3H]epibatidine from rat neuronal acetylcholine receptor subunit alpha4beta2 expressed in HEK293 cell membranes incubated for 4 hrs by scintillation counting method.
The target of assay [4] is T1, Neuronal acetylcholine receptor; alpha3/beta4. In words: Agonist activity at rat neuronal acetylcholine receptor subunit alpha3beta4 expressed in HEK293 cells at 1 mM by FMP assay. The class given is cell-based. As to conditions: for pEC50: hek293.
The target of assay [5] is Neuronal acetylcholine receptor subunit alpha-4/beta-2 (Mus musculus) (UniProt Q9ERK7+O70174). The assay is described as follows: Agonist activity at mouse neuronal acetylcholine receptor subunit alpha4beta2 expressed in HEK293T cells at 300 uM by FMP assay. The class given is cell-based. To be noted: HEK-293T.
Assay [6] has as its target T1, Neuronal acetylcholine receptor; alpha3/beta4. In words: Agonist activity at rat neuronal acetylcholine receptor subunit alpha3beta4 expressed in HEK293 cells by FMP assay. The class given is cell-based.
In assay [7] the target is Neuronal acetylcholine receptor subunit alpha-4/beta-2 (Mus musculus, UniProt O70174+Q9ERK7). In words: Agonist activity at mouse neuronal acetylcholine receptor subunit alpha4beta2 expressed in HEK293T cells by FMP assay. The class given is cell-based, HEK-293T.
Assay [8] addresses Neuronal acetylcholine receptor; alpha3/beta4 (Rattus norvegicus) (UniProt P04757+P12392). The assay is described as follows: Agonist activity at rat neuronal acetylcholine receptor subunit alpha3beta4 expressed in HEK293 cells at 300 uM by FMP assay. The class given is cell-based.

Each structure is given as a SMILES string. The source made the active and inactive calls. The rule behind the calls is not given here.

Broadly, the EC50 is the concentration that produces a half-maximal response. A low value points to greater potency. Usually pEC50 stands for the negative decadic logarithm of the EC50, by convention in mol/L. A low value points to a large EC50. The term pKi denotes the Ki on a negative log10 scale, so that one unit is a factor of ten. The low end stands for a large Ki, the high end for a small Ki.

T1 sequence (P04757 whole entry): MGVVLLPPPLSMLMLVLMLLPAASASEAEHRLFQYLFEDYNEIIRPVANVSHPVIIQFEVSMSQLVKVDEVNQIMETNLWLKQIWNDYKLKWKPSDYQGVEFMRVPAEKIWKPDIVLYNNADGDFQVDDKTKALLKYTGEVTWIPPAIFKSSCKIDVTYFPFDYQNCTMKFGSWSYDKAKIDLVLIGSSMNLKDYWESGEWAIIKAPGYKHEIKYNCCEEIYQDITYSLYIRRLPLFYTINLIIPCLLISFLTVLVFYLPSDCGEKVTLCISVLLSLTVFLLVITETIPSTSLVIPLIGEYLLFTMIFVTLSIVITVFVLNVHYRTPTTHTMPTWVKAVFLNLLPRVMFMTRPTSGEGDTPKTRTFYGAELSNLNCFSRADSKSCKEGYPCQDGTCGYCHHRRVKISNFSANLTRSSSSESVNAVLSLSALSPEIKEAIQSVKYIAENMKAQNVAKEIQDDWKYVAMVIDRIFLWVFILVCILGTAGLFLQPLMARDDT
T1 sequence (P12392 whole entry): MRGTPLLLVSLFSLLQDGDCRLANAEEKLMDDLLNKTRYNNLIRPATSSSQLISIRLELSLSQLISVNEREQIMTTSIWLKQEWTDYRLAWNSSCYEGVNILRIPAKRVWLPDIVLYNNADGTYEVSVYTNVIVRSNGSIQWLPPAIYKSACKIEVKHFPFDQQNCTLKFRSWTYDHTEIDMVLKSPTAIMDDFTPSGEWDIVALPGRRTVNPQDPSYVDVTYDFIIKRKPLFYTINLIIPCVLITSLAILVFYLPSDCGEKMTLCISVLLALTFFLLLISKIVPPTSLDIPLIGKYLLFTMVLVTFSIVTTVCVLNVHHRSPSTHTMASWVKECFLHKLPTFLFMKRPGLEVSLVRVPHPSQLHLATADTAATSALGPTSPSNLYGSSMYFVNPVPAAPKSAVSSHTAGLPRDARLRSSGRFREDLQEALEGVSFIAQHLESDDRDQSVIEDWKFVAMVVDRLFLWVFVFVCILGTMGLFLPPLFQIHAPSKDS
Chain of Neuronal acetylcholine receptor; alpha4/beta2 (P09483 whole entry): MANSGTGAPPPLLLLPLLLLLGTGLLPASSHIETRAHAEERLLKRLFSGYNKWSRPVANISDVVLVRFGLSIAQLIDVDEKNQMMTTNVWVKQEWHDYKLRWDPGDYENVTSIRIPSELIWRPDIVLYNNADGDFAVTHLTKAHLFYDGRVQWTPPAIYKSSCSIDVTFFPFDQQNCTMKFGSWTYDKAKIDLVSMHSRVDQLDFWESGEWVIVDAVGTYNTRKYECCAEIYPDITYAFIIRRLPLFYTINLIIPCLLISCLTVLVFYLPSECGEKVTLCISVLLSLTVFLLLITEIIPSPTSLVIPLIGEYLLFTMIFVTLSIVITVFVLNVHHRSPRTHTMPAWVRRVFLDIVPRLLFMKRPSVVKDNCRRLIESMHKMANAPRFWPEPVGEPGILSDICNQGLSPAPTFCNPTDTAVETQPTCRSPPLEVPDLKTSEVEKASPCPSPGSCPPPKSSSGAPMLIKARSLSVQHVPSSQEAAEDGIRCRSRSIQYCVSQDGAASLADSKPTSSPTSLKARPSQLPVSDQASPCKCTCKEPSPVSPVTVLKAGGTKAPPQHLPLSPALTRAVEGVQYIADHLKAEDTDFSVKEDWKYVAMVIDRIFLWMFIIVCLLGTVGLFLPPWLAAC
Chain of Neuronal acetylcholine receptor; alpha4/beta2 (P12390 whole entry): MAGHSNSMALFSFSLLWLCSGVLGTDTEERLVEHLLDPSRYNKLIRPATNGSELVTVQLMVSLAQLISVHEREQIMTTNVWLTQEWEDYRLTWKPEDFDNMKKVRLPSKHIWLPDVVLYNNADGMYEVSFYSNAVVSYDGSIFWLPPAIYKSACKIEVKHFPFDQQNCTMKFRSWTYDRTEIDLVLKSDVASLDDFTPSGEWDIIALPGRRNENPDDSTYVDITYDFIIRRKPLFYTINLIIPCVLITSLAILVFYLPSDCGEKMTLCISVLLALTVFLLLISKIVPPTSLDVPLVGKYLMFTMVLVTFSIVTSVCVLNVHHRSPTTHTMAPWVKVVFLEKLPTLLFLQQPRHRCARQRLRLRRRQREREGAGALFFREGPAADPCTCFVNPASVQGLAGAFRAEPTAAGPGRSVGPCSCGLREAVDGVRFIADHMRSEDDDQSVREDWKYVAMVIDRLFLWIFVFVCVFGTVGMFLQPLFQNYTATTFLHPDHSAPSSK
Chain of Neuronal acetylcholine receptor; alpha4/beta4 (P09483 whole entry): as the sequence (P09483 whole entry) above
Chain of Neuronal acetylcholine receptor; alpha4/beta4 (P12392 whole entry): as the sequence (P12392 whole entry) above
Chain of Neuronal acetylcholine receptor subunit alpha-4/beta-2 (Mus musculus) (O70174 31-629 partner limits assumed): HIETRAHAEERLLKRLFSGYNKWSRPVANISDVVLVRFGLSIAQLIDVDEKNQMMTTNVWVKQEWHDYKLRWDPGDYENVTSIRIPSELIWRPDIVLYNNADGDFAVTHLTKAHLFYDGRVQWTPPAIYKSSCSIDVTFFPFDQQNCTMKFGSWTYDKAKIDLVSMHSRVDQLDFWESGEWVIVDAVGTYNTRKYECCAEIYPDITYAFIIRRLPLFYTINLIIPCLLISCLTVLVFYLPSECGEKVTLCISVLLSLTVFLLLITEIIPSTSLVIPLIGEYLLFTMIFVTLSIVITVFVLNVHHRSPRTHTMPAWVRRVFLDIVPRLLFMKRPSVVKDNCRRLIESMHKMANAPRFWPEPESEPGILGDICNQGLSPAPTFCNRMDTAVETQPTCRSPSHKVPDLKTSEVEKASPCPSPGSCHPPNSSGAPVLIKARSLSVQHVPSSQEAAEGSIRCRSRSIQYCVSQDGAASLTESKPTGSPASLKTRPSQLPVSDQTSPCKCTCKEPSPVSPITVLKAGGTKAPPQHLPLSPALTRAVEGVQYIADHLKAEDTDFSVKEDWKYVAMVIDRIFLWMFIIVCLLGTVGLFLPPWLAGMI
Chain of Neuronal acetylcholine receptor subunit alpha-4/beta-2 (Mus musculus) (Q9ERK7 26-501 limits assumed): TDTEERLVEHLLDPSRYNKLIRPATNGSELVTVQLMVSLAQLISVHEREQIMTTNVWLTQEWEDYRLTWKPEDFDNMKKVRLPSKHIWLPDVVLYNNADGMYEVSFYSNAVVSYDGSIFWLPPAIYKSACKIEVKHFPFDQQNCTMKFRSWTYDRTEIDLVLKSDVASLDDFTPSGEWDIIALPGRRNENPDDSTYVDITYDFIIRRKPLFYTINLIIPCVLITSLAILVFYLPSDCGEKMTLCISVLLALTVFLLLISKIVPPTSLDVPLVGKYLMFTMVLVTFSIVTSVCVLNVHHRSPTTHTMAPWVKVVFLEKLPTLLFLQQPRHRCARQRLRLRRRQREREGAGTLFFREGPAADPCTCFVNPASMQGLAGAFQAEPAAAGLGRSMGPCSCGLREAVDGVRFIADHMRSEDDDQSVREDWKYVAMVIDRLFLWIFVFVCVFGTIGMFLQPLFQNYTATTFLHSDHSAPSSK
Chain of Neuronal acetylcholine receptor subunit alpha-4/beta-2 (Q9ERK7 whole entry): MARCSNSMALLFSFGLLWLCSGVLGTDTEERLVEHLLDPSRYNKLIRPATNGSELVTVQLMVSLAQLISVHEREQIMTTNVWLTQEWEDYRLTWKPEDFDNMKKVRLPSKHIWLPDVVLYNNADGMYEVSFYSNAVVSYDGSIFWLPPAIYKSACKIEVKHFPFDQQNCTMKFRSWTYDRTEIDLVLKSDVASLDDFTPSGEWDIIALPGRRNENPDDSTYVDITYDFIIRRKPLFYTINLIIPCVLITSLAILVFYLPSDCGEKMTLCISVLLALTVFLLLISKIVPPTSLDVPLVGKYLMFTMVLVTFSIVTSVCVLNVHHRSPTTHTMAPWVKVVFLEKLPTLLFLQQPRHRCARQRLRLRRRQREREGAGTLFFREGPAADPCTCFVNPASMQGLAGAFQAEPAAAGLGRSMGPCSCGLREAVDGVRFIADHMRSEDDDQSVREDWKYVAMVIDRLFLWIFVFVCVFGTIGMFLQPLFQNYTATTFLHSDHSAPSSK
Chain of Neuronal acetylcholine receptor subunit alpha-4/beta-2 (O70174 whole entry): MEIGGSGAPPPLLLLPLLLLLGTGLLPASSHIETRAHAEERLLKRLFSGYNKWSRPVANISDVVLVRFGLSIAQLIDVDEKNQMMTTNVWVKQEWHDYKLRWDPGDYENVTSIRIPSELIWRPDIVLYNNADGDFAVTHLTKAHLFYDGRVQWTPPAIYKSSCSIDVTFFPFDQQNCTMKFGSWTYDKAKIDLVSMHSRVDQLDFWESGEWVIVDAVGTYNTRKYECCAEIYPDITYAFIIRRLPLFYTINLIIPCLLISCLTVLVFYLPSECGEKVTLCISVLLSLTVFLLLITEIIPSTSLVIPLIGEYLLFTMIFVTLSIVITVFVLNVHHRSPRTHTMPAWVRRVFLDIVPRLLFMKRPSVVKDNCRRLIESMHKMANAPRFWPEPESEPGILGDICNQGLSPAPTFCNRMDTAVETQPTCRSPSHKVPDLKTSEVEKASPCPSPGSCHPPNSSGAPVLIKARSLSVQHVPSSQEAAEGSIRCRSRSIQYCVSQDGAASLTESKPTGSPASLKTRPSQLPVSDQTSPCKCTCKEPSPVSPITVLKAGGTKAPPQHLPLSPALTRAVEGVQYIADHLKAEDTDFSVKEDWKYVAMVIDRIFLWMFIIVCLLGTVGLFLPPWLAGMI

`CN1CCN(C(=O)N(C)C)CC1`: the Ki in assay [1] (read-out: Ki) was 50 µM; in assay [2] (read-out: Ki) it was 50 µM; in assay [3], 30 µM.

`CCNC(=O)N1CCN(C)CC1`: the values for the Ki in assay [1] (read-out: Ki), in assay [2] (read-out: Ki) and in assay [3] were 100 µM, 100 µM and 10 µM, respectively. In assay [4], this compound returned a concentration giving a half-maximal response (EC50) greater than 1000 µM. Besides, the pEC50 in assay [4] was less than 3. Also, in assay [5], the result was Active.

In assay [1], `CNC(=S)N1CCN(C)CC1` displayed a negative logarithm of the Ki (pKi) of less than 3. Also, the Ki in assay [1] (read-out: Ki) was greater than 1000 µM; in assay [2] (read-out: Ki) it was 500 µM; in assay [3], 19 µM.

In turn, `CCNC(=S)N1CCN(C)CC1` displayed a concentration giving a half-maximal response (EC50) in assay [6] of 100 µM. This compound displayed a pKi in assay [1] of less than 3. For the same compound, the Ki was greater than 1000 µM in assay [1] (read-out: Ki), 300 µM in assay [2] (read-out: Ki) and 5.8 µM in assay [3]. In addition, the result in assay [5] was Active.

For `CN(C)C(=O)C1CCNCC1`, the pKi in assay [1], in assay [2] (hek293) and in assay [3] (hek293) was less than 3 in each case. In addition, the Ki in assay [1] (read-out: Ki), in assay [2] (read-out: Ki) and in assay [3] was greater than 1000 µM each time.

In the case of `CN1CCCN(C(=O)N(C)C)CC1`, the Ki in assay [1] (read-out: Ki) was found to be 300 µM; in assay [2] (read-out: Ki), 300 µM; in assay [3], 50 µM.

As to `CN(C)C(=O)N1CCCNCC1`, the Ki in assay [1] (read-out: Ki) was determined as 300 µM; in assay [2] (read-out: Ki), 50 µM; in assay [3], 11 µM.

Take `CC(CCOC(=O)N(C)C)N(C)C` (configuration not stated): the Ki in assay [1] (read-out: pKi (converted)) and in assay [2] (read-out: pKi (converted)) was 0.02 µM throughout.

On to `CC(CCOC(=O)N1CCCC1)N(C)C` (configuration not stated), for which a half-maximal effect in assay [7] (EC50) was put at 7.1 µM.

`CN(C)C(=O)OC[C@H]1C[C@H]1N` (racemic): the Ki in assay [1] (read-out: Ki) came to 300 µM; in assay [2] (read-out: Ki), 100 µM; in assay [3], 13 µM.

For `CN(C)C(=O)OC[C@H]1C[C@@H]1N(C)C` (racemic), the Ki came to 1000 µM in assay [1] (read-out: Ki), 1000 µM in assay [2] (read-out: Ki) and 100 µM in assay [3].

In assay [1], `CNC(=O)OC[C@H]1C[C@@H]1N(C)C.O=C(O)C(=O)O` (racemic) had a negative logarithm of the Ki (pKi) of less than 3. Also, the Ki is greater than 1000 µM in assay [1] (read-out: Ki), 1000 µM in assay [2] (read-out: Ki) and 300 µM in assay [3].

For `CN(C)C(=O)OC[C@H]1C[C@H]1N(C)C` (racemic), the Ki came to 14 µM in assay [1] (read-out: Ki), 14 µM in assay [2] (read-out: Ki) and 1.5 µM in assay [3]. Also, the result in assay [8] and in assay [5] was Active.

Consider `CNC(=O)OC[C@H]1C[C@H]1N(C)C` (racemic), for which the Ki amounted to 50 µM in assay [1] (read-out: Ki), 30 µM in assay [2] (read-out: Ki) and 2.1 µM in assay [3]. For the same compound, the result in assay [8] and in assay [5] was Active.

As for `CN(C)C(=O)N1CCC(N(C)C)C1` (racemic), the 50% effective concentration (EC50) in assay [6] worked out at 32 µM; in assay [7], 10 µM. The Ki in assay [1] (read-out: Ki) turned out to be 6.4 µM; in assay [2] (read-out: Ki) it was 2.3 µM; in assay [3], 6.4 µM.

Turning to `CCNC(=O)N1CCC(N(C)C)C1` (racemic), in assay [6], a half-maximal response (EC50) required 100 µM. For the same compound, the Ki was determined as 30 µM in assay [1] (read-out: Ki), 30 µM in assay [2] (read-out: Ki) and 5.7 µM in assay [3]. The result in assay [5] was Active.

As to `CNC(=S)N1CCC(N(C)C)C1` (racemic), the figures for the Ki in assay [1] (read-out: Ki), in assay [2] (read-out: Ki) and in assay [3] were 300 µM, 100 µM and 2.3 µM, respectively. Moreover, the concentration for a half-maximal effect (EC50) in assay [4] was greater than 1000 µM. The pEC50 in assay [4] is on record as less than 3. In addition, the outcome in assay [5] was Active.

On to `CCNC(=S)N1CCC(N(C)C)C1` (racemic), for which, in assay [1], the negative logarithm of the Ki (pKi) is recorded as less than 3. For the same compound, the Ki in assay [1] (read-out: Ki) is greater than 1000 µM; in assay [2] (read-out: Ki), 300 µM; in assay [3] it was 1.2 µM. Moreover, the concentration giving a half-maximal response (EC50) in assay [4] is greater than 1000 µM. Besides, in assay [4], the negative logarithm of the EC50 (pEC50) is less than 3. In assay [5], the outcome was Active.
